The values that follow come from patent publication US8530489B2 (Vertex Pharmaceuticals Incorporated, priority 2006, dated 2013).

Some results are limits rather than exact numbers.

For this assay, the target named is PLK1 (Homo sapiens, UniProt P53350). Briefly: PLK1 Inhibition Assay I (radioactive-phosphate incorporation). Type of assay: biochemical. The following applies: Ki(app); PLK1 Inhibition Assay I or II (table does not say which). Put shortly: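 Ki(app) values came from non-linear regression of initial rates after background subtraction, with phosphopeptide measured by phosphocellulose filter binding and scintillation counting. PLK1 at 2 nM was preincubated with compound (typically from 10 μM, 2-fold dilutions) for 10 min, then run 240 min at 25° C with 350 μM [γ-33P]ATP and 450 μM peptide substrate in HEPES pH 7.5 buffer.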
PLK1, sequence (P53350 whole entry): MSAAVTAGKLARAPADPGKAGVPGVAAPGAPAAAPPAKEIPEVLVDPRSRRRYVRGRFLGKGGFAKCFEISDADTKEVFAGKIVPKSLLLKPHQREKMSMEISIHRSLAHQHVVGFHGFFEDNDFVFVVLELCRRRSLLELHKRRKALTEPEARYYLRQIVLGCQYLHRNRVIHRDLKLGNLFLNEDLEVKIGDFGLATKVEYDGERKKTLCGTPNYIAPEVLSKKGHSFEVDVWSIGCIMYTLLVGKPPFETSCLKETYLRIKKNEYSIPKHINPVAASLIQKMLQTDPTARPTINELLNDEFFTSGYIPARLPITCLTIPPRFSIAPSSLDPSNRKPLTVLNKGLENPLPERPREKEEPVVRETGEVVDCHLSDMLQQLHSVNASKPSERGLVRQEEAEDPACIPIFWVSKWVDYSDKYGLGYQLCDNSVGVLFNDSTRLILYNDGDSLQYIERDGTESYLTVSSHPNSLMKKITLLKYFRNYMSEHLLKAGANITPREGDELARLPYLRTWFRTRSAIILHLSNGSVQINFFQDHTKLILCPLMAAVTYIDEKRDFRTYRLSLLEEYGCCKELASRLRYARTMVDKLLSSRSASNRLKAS
With `COc1cc(CNc2ncc(C#N)c(-c3c[nH]c4ncc(C(F)(F)F)cc34)n2)ccc1O` [Compound I-42, 2-(4-hydroxy-3-methoxybenzylamino)-4-(5-(trifluoromethyl)-1H-pyrrolo[2,3-b]pyridin-3-yl)pyrimidine-5-carbonitrile], the Ki is above 40 nM. The value for `C[C@@H](Nc1ncc(C#N)c(-c2c[nH]c3ncc(C(F)(F)F)cc23)n1)c1ccc(S(=O)(=O)N(C)C)cc1` [Compound I-190, 4-((1R)-1-(5-cyano-4-(5-(trifluoromethyl)-1H-pyrrolo[2,3-b]pyridin-3-yl)pyrimidin-2-ylamino)ethyl)-N,N-dimethylbenzenesulfonamide] was below 3 nM. The value for `C[C@H](O)C(=O)N1CCC([C@@H](C)Nc2ncc(C#N)c(-c3c[nH]c4ncc(C(F)(F)F)cc34)n2)CC1` [Compound I-228, 2-((R)-1-(1-((S)-2-hydroxypropanoyl)piperidin-4-yl)ethylamino)-4-(5-(trifluoromethyl)-1H-pyrrolo[2,3-b]pyridin-3-yl)pyrimidine-5-carbonitrile] was below 3 nM; that for `C[C@@H](Nc1ncc(C#N)c(-c2c[nH]c3ncc(C(F)(F)F)cc23)n1)c1ccc(NCCN2CCCC2)nc1` [Compound I-223, 2-((R)-1-(6-(2-(pyrrolidin-1-yl)ethylamino)pyridin-3-yl)ethylamino)-4-(5-(trifluoromethyl)-1H-pyrrolo[2,3-b]pyridin-3-yl)pyrimidine-5-carbonitrile] was 3 to 40 nM; that for `N#Cc1cnc(NCc2cccc(Cl)c2)nc1-c1c[nH]c2ncc(C(F)(F)F)cc12` [Compound I-13, 2-(3-chlorobenzylamino)-4-(5-(trifluoromethyl)-1H-pyrrolo[2,3-b]pyridin-3-yl)pyrimidine-5-carbonitrile] was above 40 nM.

With `CC(Nc1ncc(C#N)c(-c2c[nH]c3ncc(C(F)(F)F)cc23)n1)c1ccc(S(C)(=O)=O)cc1` (centres unmarked) [Compound I-155, 2-(1-(4-(methylsulfonyl)phenyl)ethylamino)-4-(5-(trifluoromethyl)-1H-pyrrolo[2,3-b]pyridin-3-yl)pyrimidine-5-carbonitrile], the Ki was below 3 nM. `CC(Nc1ncc(C#N)c(-c2c[nH]c3ncc(C(F)(F)F)cc23)n1)c1ccc(O)c(Cl)c1` (centres unmarked) [Compound I-122, 2-(1-(3-chloro-4-hydroxyphenyl)ethylamino)-4-(5-(trifluoromethyl)-1H-pyrrolo[2,3-b]pyridin-3-yl)pyrimidine-5-carbonitrile]: the Ki is below 3 nM. The same measure for `C[C@@H](Nc1ncc(C#N)c(-c2c[nH]c3ncc(C(F)(F)F)cc23)n1)C1CCN(C(=O)C(C)(C)O)CC1` [Compound I-206, 2-((R)-1-(1-(2-hydroxy-2-methylpropanoyl)piperidin-4-yl)ethylamino)-4-(5-(trifluoromethyl)-1H-pyrrolo[2,3-b]pyridin-3-yl)pyrimidine-5-carbonitrile]: below 3 nM; for `C[C@@H](O)CNc1ncc(C#N)c(-c2c[nH]c3ncc(C(F)(F)F)cc23)n1` [Compound I-97, 2-((R)-2-hydroxypropylamino)-4-(5-(trifluoromethyl)-1H-pyrrolo[2,3-b]pyridin-3-yl)pyrimidine-5-carbonitrile]: 3 to 40 nM.

As for `CC(Nc1ncc(C#N)c(-c2c[nH]c3ncc(C(F)(F)F)cc23)n1)c1ccc(N2CCC(O)(C(C)C)CC2)nc1` (centres unmarked) [Compound I-198, 2-(1-(6-(4-hydroxy-4-isopropylpiperidin-1-yl)pyridin-3-yl)ethylamino)-4-(5-(trifluoromethyl)-1H-pyrrolo[2,3-b]pyridin-3-yl)pyrimidine-5-carbonitrile], the Ki was 3 to 40 nM. Consider `N#Cc1cnc(NCCO)nc1-c1c[nH]c2ncc(C(F)(F)F)cc12` [Compound I-109, 2-(2-hydroxyethylamino)-4-(5-(trifluoromethyl)-1H-pyrrolo[2,3-b]pyridin-3-yl)pyrimidine-5-carbonitrile], for which the Ki is 3 to 40 nM.

On to `CC(C)[C@@H](CO)Nc1ncc(C#N)c(-c2c[nH]c3ncc(C(F)(F)F)cc23)n1` [Compound I-58, 2-((S)-1-hydroxy-3-methylbutan-2-ylamino)-4-(5-(trifluoromethyl)-1H-pyrrolo[2,3-b]pyridin-3-yl)pyrimidine-5-carbonitrile], for which the Ki was in the range of 3 to 40 nM.

For the compound `CCN1CCN(c2ccc([C@@H](C)Nc3ncc(C#N)c(-c4c[nH]c5ncc(C(F)(F)F)cc45)n3)cn2)CC1` [Compound I-285, 2-((R)-1-(6-(4-ethylpiperazin-1-yl)pyridin-3-yl)ethylamino)-4-(5-(trifluoromethyl)-1H-pyrrolo[2,3-b]pyridin-3-yl)pyrimidine-5-carbonitrile], the Ki was below 3 nM. On to `N#Cc1cnc(N[C@@H]2CC[C@H](CO)C2)nc1-c1c[nH]c2ncc(C(F)(F)F)cc12` [Compound I-119, 2-((1R,3S)-3-(hydroxymethyl)cyclopentylamino)-4-(5-(trifluoromethyl)-1H-pyrrolo[2,3-b]pyridin-3-yl)pyrimidine-5-carbonitrile], for which the Ki fell in the range of 3 to 40 nM. On to `N#Cc1cnc(Sc2ccccc2)nc1-c1c[nH]c2ncc(C(F)(F)F)cc12` [II-0, 2-(phenylthio)-4-(5-(trifluoromethyl)-1H-pyrrolo[2,3-b]pyridin-3-yl)pyrimidine-5-carbonitrile], for which the Ki is 3 to 40 nM.

On to `CCN(CC)S(=O)(=O)c1ccc(C(C)Nc2ncc(C#N)c(-c3c[nH]c4ncc(C(F)(F)F)cc34)n2)cc1` (centres unmarked) [Compound I-181, 4-(1-(5-cyano-4-(5-(trifluoromethyl)-1H-pyrrolo[2,3-b]pyridin-3-yl)pyrimidin-2-ylamino)ethyl)-N,N-diethylbenzenesulfonamide], for which the Ki lay within 3 to 40 nM. On to `CCNC(=O)c1ccc([C@@H](C)Nc2ncc(C#N)c(-c3c[nH]c4ncc(C(F)(F)F)cc34)n2)cc1` [Compound I-170, 4-((1R)-1-(5-cyano-4-(5-(trifluoromethyl)-1H-pyrrolo[2,3-b]pyridin-3-yl)pyrimidin-2-ylamino)ethyl)-N-ethylbenzamide], for which the Ki was below 3 nM.

On to `C[C@@H](Nc1ncc(C#N)c(-c2c[nH]c3ncc(C(F)(F)F)cc23)n1)C1CCN(C(=O)C2(O)CC2)CC1` [Compound I-220, 2-((R)-1-(1-(1-hydroxycyclopropanecarbonyl)piperidin-4-yl)ethylamino)-4-(5-(trifluoromethyl)-1H-pyrrolo[2,3-b]pyridin-3-yl)pyrimidine-5-carbonitrile], for which the Ki was below 3 nM. Turning to `C[C@@H](Nc1ncc(C#N)c(-c2c[nH]c3ncc(C(F)(F)F)cc23)n1)C1CCCCC1` [Compound I-61, 2-((R)-1-cyclohexylethylamino)-4-(5-(trifluoromethyl)-1H-pyrrolo[2,3-b]pyridin-3-yl)pyrimidine-5-carbonitrile], the Ki is below 3 nM. The same measure for `N#Cc1cnc(Nc2ccccc2)nc1-c1c[nH]c2ncc(C(F)(F)F)cc12` [Compound I-25, 2-(phenylamino)-4-(5-(trifluoromethyl)-1H-pyrrolo[2,3-b]pyridin-3-yl)pyrimidine-5-carbonitrile]: 3 to 40 nM; for `N#Cc1cnc(NCc2ccc(-n3cccn3)cc2)nc1-c1c[nH]c2ncc(C(F)(F)F)cc12` [Compound I-92, 2-(4-(1H-pyrazol-1-yl)benzylamino)-4-(5-(trifluoromethyl)-1H-pyrrolo[2,3-b]pyridin-3-yl)pyrimidine-5-carbonitrile]: above 40 nM. Regarding `N#Cc1cnc(NC2CC2c2ccccc2)nc1-c1c[nH]c2ncc(C(F)(F)F)cc12` (centres unmarked) [Compound I-27, 2-(2-phenylcyclopropylamino)-4-(5-(trifluoromethyl)-1H-pyrrolo[2,3-b]pyridin-3-yl)pyrimidine-5-carbonitrile], the Ki was above 40 nM.

On to `N#Cc1cnc(NC2CCCC2)nc1-c1c[nH]c2ncc(C(F)(F)F)cc12` [Compound I-73, 2-(cyclopentylamino)-4-(5-(trifluoromethyl)-1H-pyrrolo[2,3-b]pyridin-3-yl)pyrimidine-5-carbonitrile], for which the Ki was in the range of 3 to 40 nM.

As to `C[C@@H](Nc1ncc(C#N)c(-c2c[nH]c3ncc(C(F)(F)F)cc23)n1)c1ccc(N2CCN3CCC[C@@H]3C2)nc1` [Compound I-298, 2-((R)-1-(6-((R)-hexahydropyrrolo[1,2-a]pyrazin-2(1H)-yl)pyridin-3-yl)ethylamino)-4-(5-(trifluoromethyl)-1H-pyrrolo[2,3-b]pyridin-3-yl)pyrimidine-5-carbonitrile], the Ki is below 3 nM.

Consider `CC(C)(Nc1ncc(C#N)c(-c2c[nH]c3ncccc23)n1)C(=O)NCC(F)(F)F` [IA-10, 2-(5-cyano-4-(1H-pyrrolo[2,3-b]pyridin-3-yl)pyrimidin-2-ylamino)-2-methyl-N-(2,2,2-trifluoroethyl)propanamide], for which the Ki was above 40 nM.

As for `N#Cc1cnc(NCCc2ccccc2)nc1-c1c[nH]c2ncc(C(F)(F)F)cc12` [Compound I-7, 2-(phenethylamino)-4-(5-(trifluoromethyl)-1H-pyrrolo[2,3-b]pyridin-3-yl)pyrimidine-5-carbonitrile], the Ki was above 40 nM.

`C[C@@H](Nc1ncc(C#N)c(-c2c[nH]c3ncc(C(F)(F)F)cc23)n1)[C@H]1CC[C@@H](O)CC1` [Compound I-180, 2-((R)-1-((1s,4S)-4-hydroxycyclohexyl)ethylamino)-4-(5-(trifluoromethyl)-1H-pyrrolo[2,3-b]pyridin-3-yl)pyrimidine-5-carbonitrile]: the Ki was below 3 nM.

For the compound `C[C@@H](Nc1ncc(C#N)c(-c2c[nH]c3ncc(C(F)(F)F)cc23)n1)c1ccc(C(=O)NC2CC2)cc1` [Compound I-171, 4-((1R)-1-(5-cyano-4-(5-(trifluoromethyl)-1H-pyrrolo[2,3-b]pyridin-3-yl)pyrimidin-2-ylamino)ethyl)-N-cyclopropylbenzamide], the Ki fell in the range of 3 to 40 nM. The same measure for `CC(=O)C(=O)N1CCC([C@@H](C)Nc2ncc(C#N)c(-c3c[nH]c4ncc(C(F)(F)F)cc34)n2)CC1` [Compound I-231, 2-((R)-1-(1-(2-oxopropanoyl)piperidin-4-yl)ethylamino)-4-(5-(trifluoromethyl)-1H-pyrrolo[2,3-b]pyridin-3-yl)pyrimidine-5-carbonitrile]: below 3 nM.
